Test results as given in the supplement of paper PMC11061612.

Key:
[1] = tested on: NCI-H520 (Squamous Cell Lung Carcinoma); experiment: combination Emax (second highest fraction inhibited in the dose matrix, 72 h); higher = more inhibition; extreme values may be limits of the assay
In short: (§1)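 Cell lines in DMEM/F12 or RPMI with 10% FBS were plated in 1536-well plates, held 24 hours at 37°C, 5% CO2, then given two-drug dose matrices for 72 hours (DMSO typically 0.2%). Viability was read by CellTiter-Glo 2.0 luminescence and scaled as inhibition from 0 (vehicle wells) to 1 (blank wells). Combination Emax is the second-highest inhibition in the matrix; Bliss excess is observed combination effect minus expected EA + EB − EA·EB, EA and EB being single-agent effects.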

[2] = tested on: ST486 (Burkitt's Lymphoma); experiment: as above
In short: as §1

[3] = tested on: NCI-H3122 (Lung Adenocarcinoma); experiment: as above
In short: as §1

[4] = tested on: MOG-G-CCM (Low Grade Glioma); experiment: as above
In short: as §1

[5] = tested on: OCI-AML3 (Acute Myeloid Leukemia); experiment: as above
In short: as §1

[6] = tested on: COR-L279 (Small Cell Lung Carcinoma); experiment: as above
In short: as §1

[7] = tested on: CW-2 (Colorectal Carcinoma); experiment: as above
In short: as §1

[8] = tested on: SK-GT-4 (Esophageal Adenocarcinoma); experiment: as above
In short: as §1

[9] = tested on: NCI-H929 (Plasma Cell Myeloma); experiment: as above
In short: as §1

[10] = tested on: KU812 (Chronic Myelogenous Leukemia); experiment: as above
In short: as §1

[11] = tested on: NCI-H2731 (Mesothelioma); experiment: as above
In short: as §1

[12] = tested on: KYSE-270 (Esophageal Squamous Cell Carcinoma); experiment: as above
In short: as §1

[13] = tested on: NCCIT (Other Solid Carcinomas); experiment: as above
In short: as §1

[14] = tested on: T-T (Esophageal Squamous Cell Carcinoma); experiment: as above
In short: as §1

[15] = tested on: DMS-114 (Small Cell Lung Carcinoma); experiment: as above
In short: as §1

[16] = tested on: M059J (Glioblastoma); experiment: as above
In short: as §1

[17] = tested on: NCI-H526 (Small Cell Lung Carcinoma); experiment: as above
In short: as §1

[18] = tested on: MN-60 (B-Lymphoblastic Leukemia); experiment: as above
In short: as §1

[19] = tested on: KP-3 (Pancreatic Carcinoma); experiment: as above
In short: as §1

[20] = tested on: OCI-AML3 (Acute Myeloid Leukemia); experiment: Bliss excess, mean over the matrix (fraction); higher = more synergy
In short: as §1
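Wherever Bliss excess, mean over the matrix is given: after 72 h of two-drug dosing.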

| Compound | combination Emax [1] | combination Emax [2] | combination Emax [3] | combination Emax [4] | combination Emax [5] | combination Emax [6] | combination Emax [7] | combination Emax [8] | combination Emax [9] | combination Emax [10] | combination Emax [11] | combination Emax [12] | combination Emax [13] | combination Emax [14] | combination Emax [15] | combination Emax [16] | combination Emax [17] | combination Emax [18] | combination Emax [19] | Bliss excess [20] |
| --- | --- | --- | --- | --- | --- | --- | --- | --- | --- | --- | --- | --- | --- | --- | --- | --- | --- | --- | --- | --- |
| C=CCn1c(=O)c2cnc(Nc3ccc(N4CCN(C)CC4)cc3)nc2n1-c1cccc(C(C)(C)O)n1 [AZD1775] + CCc1c2c(nc3ccc(O)cc13)-c1cc3c(c(=O)n1C2)COC(=O)[C@]3(O)CC [SN-38] (first compound max 1 µM, partner max 0.3 µM) | 0.808 | 0.997 | 0.853 | 0.703 | 0.922 | 1 | 0.625 | 0.486 | 0.927 | 0.87 | 0.496 | 0.981 | 0.841 | 0.776 | 0.655 | 0.891 | 1 | 0.818 | 0.397 | -0.103 |
| CN(CCO)CC[C@H](CSc1ccccc1)Nc1ccc(S(=O)(=O)NC(=O)c2ccc(N3CCC([C@@H](O)c4ccccc4-c4ccc(Cl)cc4)CC3)cc2)cc1S(=O)(=O)C(F)(F)F [AZD4320] + CS(=O)(=O)CCNCc1ccc(-c2ccc3ncnc(Nc4ccc(OCc5cccc(F)c5)c(Cl)c4)c3c2)o1 [Lapatinib] (first compound max 1 µM, 7x7, partner max 10 µM) | 0.57 | 0.96 | 0.281 | 0.729 | 0.884 | 1 | 0.593 | 0.774 | 0.589 | 0.973 | 0.858 | 0.708 | 0.243 | 0.935 | 0.36 | 0.705 | 0.995 | 0.206 | 0.363 | 0.0258 |
| Cc1c2c(nn1C)CSCc1cc(n(C)n1)CSc1cc(c3ccccc3c1)OCCCc1c(C(=O)O)n(C)c3c-2c(Cl)ccc13 [AZD5991] + CC(=O)O[C@H]1C(=O)[C@@]2(C)[C@H]([C@H](OC(=O)c3ccccc3)[C@]3(O)C[C@H](OC(=O)[C@H](O)[C@@H](NC(=O)c4ccccc4)c4ccccc4)C(C)=C1C3(C)C)[C@]1(OC(C)=O)CO[C@@H]1C[C@@H]2O [Paclitaxel] (first compound max 1 µM, 7x7, partner max 3 µM) | 0.769 | 0.994 | 0.965 | 0.936 | 1 | 0.997 | 0.497 | 0.454 | 1 | 0.918 | 0.397 | 0.962 | 0.984 | 0.989 | 0.944 | 0.865 | 1 | 0.539 | 0.365 | 0.0141 |
| Cc1c2c(nn1C)CSCc1cc(n(C)n1)CSc1cc(c3ccccc3c1)OCCCc1c(C(=O)O)n(C)c3c-2c(Cl)ccc13 [AZD5991] + CS(=O)(=O)CCNCc1ccc(-c2ccc3ncnc(Nc4ccc(OCc5cccc(F)c5)c(Cl)c4)c3c2)o1 [Lapatinib] (first compound max 1 µM, 7x7, partner max 10 µM) | 0.435 | 0.758 | 0.392 | 0.358 | 0.985 | 0.903 | 0.531 | 0.379 | 1 | 0.867 | 0.44 | 0.959 | 0.635 | 0.988 | 0.608 | 0.456 | 0.469 | 0.158 | 0.303 | -0.0516 |
| C[C@@H]1COCCN1c1cc(C2([S@](C)(=N)=O)CC2)nc(-c2ccnc3[nH]ccc23)n1 [AZD6738] + C1CC(C1)(C(=O)[O-])C(=O)[O-].N.N.[Pt+2] [Carboplatin] (first compound max 10 µM, 7x7, partner max 10 µM) | 0.674 | 0.865 | 0.674 | 0.536 | 0.854 | 0.635 | 0.537 | 0.463 | 0.801 | 0.817 | 0.399 | 0.779 | 0.531 | 0.26 | 0.4 | 0.502 | 0.564 | 0.638 | 0.264 | -0.0326 |
| Cc1cc2ncnn2cc1Nc1ncc2c(n1)n(C1CCOCC1)c(=O)n2C [AZD7648] + COc1cc([C@@H]2c3cc4c(cc3[C@@H](O[C@@H]3O[C@@H]5CO[C@@H](C)O[C@H]5[C@H](O)[C@H]3O)[C@H]3COC(=O)[C@H]23)OCO4)cc(OC)c1O [Etoposide] (first compound max 10 µM, 7x7, partner max 10 µM) | 0.698 | 0.933 | 0.67 | 0.577 | 0.943 | 1 | 0.379 | 0.387 | 0.988 | 0.792 | 0.542 | 0.871 | 0.495 | 0.362 | 0.658 | 0.775 | 0.999 | 0.829 | 0.312 | 0.123 |
| C[C@@H](Nc1cc(F)cc(F)c1)c1cc(C(=O)N(C)C)cc2c(=O)cc(N3CCOCC3)oc12 [AZD8186] + C1CN(CCC1(C(=O)N[C@@H](CCO)C2=CC=C(C=C2)Cl)N)C3=NC=NC4=C3C=CN4 [AZD5363] (first compound max 10 µM, 7x7, partner max 10 µM) | 0.564 | 0.151 | 0.522 | 0.581 | 0.428 | 0.679 | 0.275 | 0.457 | 1 | 0.161 | 0.305 | 0.347 | 0.499 | 0.301 | 0.472 | 0.408 | 0.147 | 0.193 | 0.312 | 0.031 |
| C[C@@H](Nc1cc(F)cc(F)c1)c1cc(C(=O)N(C)C)cc2c(=O)cc(N3CCOCC3)oc12 [AZD8186] + CC(=O)c1c(C)c2cnc(Nc3ccc(N4CCNCC4)cn3)nc2n(C2CCCC2)c1=O [Palbociclib] (first compound max 10 µM, 7x7, partner max 10 µM) | 0.688 | 0.813 | 0.742 | 0.519 | 0.525 | 0.909 | 0.374 | 0.422 | 0.99 | 0.582 | 0.233 | 0.311 | 0.542 | 0.315 | 0.468 | 0.337 | 0.081 | 0.502 | 0.283 | 0.0401 |
| C[C@@H](Oc1cc(-c2cnn(C3CCNCC3)c2)cnc1N)c1c(Cl)ccc(F)c1Cl [Crizotinib] + CC1=C(C(=CC=C1)Cl)NC(=O)C2=CN=C(S2)NC3=CC(=NC(=N3)C)N4CCN(CC4)CCO [Dasatinib] (first compound max 10 µM, 7x7, partner max 2 µM) | 0.659 | 0.95 | 0.881 | 0.921 | 0.639 | 0.839 | 0.306 | 0.812 | 0.999 | 1 | 0.888 | 0.792 | 0.342 | 0.825 | 0.591 | 0.829 | 0.452 | 0.494 | 0.127 | 0.0207 |
| C[C@@H](Oc1cc(-c2cnn(C3CCNCC3)c2)cnc1N)c1c(Cl)ccc(F)c1Cl [Crizotinib] + Cn1cnc2c(F)c(Nc3ccc(Br)cc3Cl)c(C(=O)NOCCO)cc21 [Selumetinib] (first compound max 10 µM, 7x7, partner max 10 µM) | 0.616 | 0.936 | 0.916 | 0.374 | 0.997 | 0.755 | 0.37 | 0.461 | 1 | 1 | 0.519 | 0.441 | 0.4 | 0.759 | 0.527 | 0.257 | 0.508 | 0.38 | 0.208 | -0.0401 |
| O=C(c1cc(Cc2n[nH]c(=O)c3ccccc23)ccc1F)N1CCN(C(=O)C2CC2)CC1 [Olaparib] + CC1(C)CCC(CN2CCN(c3ccc(C(=O)NS(=O)(=O)c4ccc(NCC5CCOCC5)c([N+](=O)[O-])c4)c(Oc4cnc5[nH]ccc5c4)c3)CC2)=C(c2ccc(Cl)cc2)C1 [Venetoclax] (first compound max 10 µM, 7x7, partner max 1 µM) | 0.119 | 0.217 | 0.226 | 0.168 | 0.427 | 0.943 | 0.118 | 0.101 | 0.21 | 0.403 | 0.0659 | 0.302 | 0.231 | 0.177 | 0.262 | 0.291 | 0.862 | 0.222 | 0.0923 | 0.0202 |
| O=C(c1cc(Cc2n[nH]c(=O)c3ccccc23)ccc1F)N1CCN(C(=O)C2CC2)CC1 [Olaparib] + CN(CC[C@H](CSC1=CC=CC=C1)NC2=C(C=C(C=C2)S(=O)(=O)NC(=O)C3=CC=C(C=C3)N4CCC(CC4)[C@H](C5=CC=CC=C5C6=CC=C(C=C6)Cl)O)S(=O)(=O)C(F)(F)F)CCO [AZD4320] (first compound max 10 µM, 7x7, partner max 1 µM) | 0.125 | 0.754 | 0.223 | 0.445 | 0.548 | 0.992 | 0.113 | 0.154 | 0.142 | 0.862 | 0.0908 | 0.383 | 0.198 | 0.233 | 0.214 | 0.321 | 0.916 | 0.25 | 0.104 | 0.057 |
